# In PMC7673538 (PLoS Biology, 2020):
# Values joined by “and” are separate entries in the source; they are usually repeats but may differ in a detail not shown here. Equal values may be shown once. Read-outs that look alike come from different tables or passages of the source.
# Key:
# CV-A24v = assay: microbe, parasite or virus in culture; type: cell-based, coxsackievirus A24v; details: Coxsackievirus
# in vitro [1] = details: human
# CV-B3 [2] = assay: microbe, parasite or virus in culture; type: cell-based, coxsackievirus B3; details: Enterovirus B, CVB3, BGM
# HRV-B14 [3] = assay: microbe, parasite or virus in culture; type: cell-based, human rhinovirus; details: for EC50: Human rhinovirus sp.
# HRV-B14 [4] = type: cell-based, human rhinovirus
# HRV-A2 [5] = type: cell-based, human rhinovirus
# EV-D68 (strain Fermon) = type: cell-based, enterovirus D68
# PV-1 = assay: microbe, parasite or virus in culture; type: cell-based, poliovirus 1; details: for EC50: Enterovirus C
# human SERT = biological target: T1, human SERT (Homo sapiens, UniProt P31645); type: cell-based; details: for SERT, Mean (Figure 8B): Control = 100.00; for SERT, Mean as % (Figure 8B): Control = 100%
# T1 construct: expressed in transfected cells; host or cells: HEK293 (gift of Dr. Hoener, F. Hoffmann-La Roche)
# T1 sequence (P31645 whole entry): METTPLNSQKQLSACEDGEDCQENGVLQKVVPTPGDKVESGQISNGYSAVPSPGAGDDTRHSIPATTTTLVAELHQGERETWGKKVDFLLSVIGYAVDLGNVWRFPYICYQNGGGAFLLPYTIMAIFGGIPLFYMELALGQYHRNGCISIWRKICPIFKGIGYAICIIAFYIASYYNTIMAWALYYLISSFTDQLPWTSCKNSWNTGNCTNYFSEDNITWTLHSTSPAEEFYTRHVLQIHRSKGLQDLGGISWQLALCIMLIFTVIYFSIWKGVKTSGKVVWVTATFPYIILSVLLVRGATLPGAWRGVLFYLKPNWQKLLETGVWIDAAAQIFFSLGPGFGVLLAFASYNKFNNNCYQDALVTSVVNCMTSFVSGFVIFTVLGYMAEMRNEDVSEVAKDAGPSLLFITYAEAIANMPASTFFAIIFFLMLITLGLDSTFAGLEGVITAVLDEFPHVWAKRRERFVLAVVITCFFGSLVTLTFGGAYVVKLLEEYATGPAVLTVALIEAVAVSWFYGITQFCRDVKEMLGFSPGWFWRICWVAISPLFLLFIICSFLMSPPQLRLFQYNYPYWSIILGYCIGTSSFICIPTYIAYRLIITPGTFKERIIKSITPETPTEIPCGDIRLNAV
# CV-B3 [6] = assay: microbe, parasite or virus in culture; type: cell-based, coxsackievirus B3; details: Enterovirus B
# in vitro [7] = details: human; remark: listed apart in the source
# HRV-A2 [8] = assay: microbe, parasite or virus in culture; type: cell-based, human rhinovirus
smiles,measurement,setting,value
"COc1ccc(N(Cc2ccc(F)cc2)C(=O)c2cc[nH]c2)cc1 [Compound 12a, N-(4-Fluorobenzyl)-N-(4-methoxyphenyl)-1H-pyrrole-3-carboxamide]",EC50,"CV-A24v; HeLa R19, read-out: EC50 CV-A24v strain 110389",3770 ± 320 nM
same,EC50,"CV-A24v; HeLa R19, read-out: EC50 CV-A24v strain 110390",1910 ± 550 nM
same,EC50,"CV-A24v; HeLa R19, read-out: EC50 CV-A24v strain 110392",2320 ± 230 nM
same,CC50,in vitro [1]; CC50 Average,> 30000 nM
same,CC50,in vitro [1]; CC50 HelaR19 Average,> 100000 nM
same,CC50,in vitro [1]; Exp 1 CC50,> 30000 nM
same,CC50,in vitro [1]; Exp 1 CC50 HelaR19,> 100000 nM
same,CC50,in vitro [1]; Exp2 CC50,> 30000 nM
same,CC50,in vitro [1]; Exp 2 CC50 HelaR19,> 100000 nM
same,cytotoxicity (in words),HeLa R19 cells,no cytotoxicity
same,EC50,CV-B3 [2],40 ± 20 nM
same,EC50,CV-B3 [2]; read-out: EC50 BGM Average,35 nM
same,EC50,CV-B3 [2]; read-out: Exp 1 EC50 BGM,20 nM
same,EC50,CV-B3 [2]; read-out: Exp 2 EC50 BGM,50 nM
same,"Figure 7 dose-response raw data, HRV_B14 (triplicate values)",HRV-B14 [3]; Concentration 0.0046 µM,15.2266 and 14.5606
same,"Figure 7 dose-response raw data, HRV_B14 (triplicate values)",HRV-B14 [3]; Concentration 0.0412 µM,11.568 and 20.943 and 17.6535
same,"Figure 7 dose-response raw data, HRV_B14 (triplicate values)",HRV-B14 [3]; Concentration 0.3704 µM,18.8048 and 20.943 and 27.193
same,"Figure 7 dose-response raw data, HRV_B14 (triplicate values)",HRV-B14 [3]; Concentration 1.1111 µM,18.8048 and 20.943 and 27.193
same,"Figure 7 dose-response raw data, HRV_B14 (triplicate values)",HRV-B14 [3]; Concentration 3.3333 µM,94.6272 and 95.7785 and 85.4167
same,"Figure 7 dose-response raw data, HRV_B14 (triplicate values)",HRV-B14 [3]; Concentration 11.1111 µM,94.6272 and 95.7785 and 85.4167
same,"Figure 7 dose-response raw data, HRV_B14 (triplicate values)",HRV-B14 [3]; Concentration 33.3333 µM,98.3946 and 104.147 and 102.94
same,"Figure 7 dose-response raw data, HRV_B14 (triplicate values)",HRV-B14 [3]; Concentration 100 µM,89.5652 and 94.1472 and 100.034
same,EC50,"HRV-B14 [3]; HRVB14, HeLa R19, read-out: EC50 Exp1",1660 nM
same,EC50,"HRV-B14 [3]; HRVB14, HeLa R19, read-out: EC50 HRV-B14",1450 ± 210 nM
same,"virus titer, TCID50/ml (Figure 2A)",HRV-B14 [4]; compound concentration 0.3 µM,10000000 TCID50/ml and 16982440 TCID50/ml
same,"virus titer, TCID50/ml (Figure 2A)",HRV-B14 [4]; compound concentration 3 µM,10000000 TCID50/ml and 16982440 TCID50/ml
same,"virus titer, TCID50/ml (Figure 2A)",HRV-A2 [5]; compound concentration 3 µM,354813 TCID50/ml
same,"virus titer, TCID50/ml (Figure 2A)",HRV-A2 [5]; compound concentration 100 µM,737.962 TCID50/ml and 467.735 TCID50/ml and 500 TCID50/ml
same,"virus titer, TCID50/ml (Figure 2A)",EV-D68 (strain Fermon); compound concentration 0.01 µM,6000000 TCID50/ml and 4677352 TCID50/ml
same,"virus titer, TCID50/ml (Figure 2A)",EV-D68 (strain Fermon); compound concentration 0.1 µM,7000000 TCID50/ml and 4677352 TCID50/ml and 8000000 TCID50/ml
same,"virus titer, TCID50/ml (Figure 2A)",EV-D68 (strain Fermon); compound concentration 3 µM,21379.6 TCID50/ml and 35481.3 TCID50/ml and 31622.8 TCID50/ml
same,"virus titer, TCID50/ml (Figure 2A)",EV-D68 (strain Fermon); compound concentration 100 µM,31622.8 TCID50/ml and 21379.6 TCID50/ml and 35481.3 TCID50/ml
same,"Figure 7 dose-response raw data, PV-1 (triplicate values)",PV-1; Concentration 0.0046 µM,10.497 and 11.7005 and 9.1598
same,"Figure 7 dose-response raw data, PV-1 (triplicate values)",PV-1; Concentration 0.0137 µM,10.497 and 11.7005 and 9.1598
same,"Figure 7 dose-response raw data, PV-1 (triplicate values)",PV-1; Concentration 0.0412 µM,10.7644 and 8.357 and 9.1598
same,"Figure 7 dose-response raw data, PV-1 (triplicate values)",PV-1; Concentration 0.1235 µM,13.4388 and 8.357 and 9.294
same,"Figure 7 dose-response raw data, PV-1 (triplicate values)",PV-1; Concentration 0.3704 µM,10.497 and 11.7005 and 9.1598
same,"Figure 7 dose-response raw data, PV-1 (triplicate values)",PV-1; Concentration 1.1111 µM,10.7644 and 8.357 and 9.1598
same,"Figure 7 dose-response raw data, PV-1 (triplicate values)",PV-1; Concentration 3.3333 µM,13.4388 and 8.357 and 9.294
same,"Figure 7 dose-response raw data, PV-1 (triplicate values)",PV-1; Concentration 100 µM,99.781 and 98.9928 and 101.358
same,EC50,"PV-1; HeLa R19, read-out: EC50 Exp1",3890 nM
same,EC50,"PV-1; HeLa R19, read-out: EC50 Exp2",3530 nM
same,EC50,"PV-1; HeLa R19, read-out: EC50 PV-1",3710 ± 180 nM
same,"SERT, Mean (Figure 8B)",human SERT; 1µM,99.47
same,"SERT, Mean as % (Figure 8B)",human SERT; 1µM,99%
same,"SERT, Mean (Figure 8B)",human SERT; 100µM,114.09
same,"SERT, Mean as % (Figure 8B)",human SERT; 100µM,114%
same,inhibition of SERT-mediated uptake (in words),"human SERT; HEK293 cells expressing human SERT, 1 and 100 μM","neither 12a, 19b, 19d, nor the combined compound 12b inhibited"
same,EC50,"CV-B3 [6]; CVB3, HAP1",20 ± 20 nM
same,EC50,"CV-B3 [6]; CVB3, HAP1, read-out: EC50 Hap1 Average",23 nM
same,EC50,"CV-B3 [6]; CVB3, HAP1, read-out: Exp 1 EC50 Hap1",40 nM
same,EC50,"CV-B3 [6]; CVB3, HAP1, read-out: Exp 2 EC50 Hap1",6 nM
same,CC50,in vitro [7]; CC50,> 100000 nM
same,CC50,in vitro [7]; CC50 Hap1 Average,> 100000 nM
same,CC50,in vitro [7]; Exp 1 CC50 Hap1,> 100000 nM
same,CC50,in vitro [7]; Exp 2 CC50 Hap1,> 100000 nM
same,"Figure 7 dose-response raw data, HRV-A2 (triplicate values)",HRV-A2 [8]; Concentration 0.0412 µM,16.3585 and 16.9681 and 15.3831
same,"Figure 7 dose-response raw data, HRV-A2 (triplicate values)",HRV-A2 [8]; Concentration 0.3704 µM,15.1392 and 18.0654 and 15.3831
same,"Figure 7 dose-response raw data, HRV-A2 (triplicate values)",HRV-A2 [8]; Concentration 1.1111 µM,18.0654 and 16.8462 and 24.4056
same,"Figure 7 dose-response raw data, HRV-A2 (triplicate values)",HRV-A2 [8]; Concentration 3.3333 µM,11.1156 and 18.0654 and 21.7232
same,"Figure 7 dose-response raw data, HRV-A2 (triplicate values)",HRV-A2 [8]; Concentration 11.1111 µM,48.3946 and 57.9264 and 41.9398
same,"Figure 7 dose-response raw data, HRV-A2 (triplicate values)",HRV-A2 [8]; Concentration 33.3333 µM,99.5652 and 104.147 and 100.034
same,"Figure 7 dose-response raw data, HRV-A2 (triplicate values)",HRV-A2 [8]; Concentration 100 µM,89.5652 and 104.147 and 110.034
same,EC50,"HRV-A2 [8]; Human rhinovirus sp., HRVA2, HeLa R19, read-out: EC50 HRV-A2",8510 ± 220 nM
